Data: ChEMBL document CHEMBL4706583, “2-Anilinoquinoline based arylamides as broad spectrum anticancer agents with B-RAF/C-RAF kinase inhibitory effects: Design, synthesis, in vitro cell-based and oncogenic kinase assessments” (Eur J Med Chem, 2020)

Legend:
HCT-116 [1] = test: Cell cycle arrest in human HCT-116 cells assessed as accumulation at sub-G1 phase at 2.5 uM measured after 24 hrs by propidium iodide staining based flow cytometry (reference value: 8.7%); assay type: functional
HCT-116 [2] = test: Cell cycle arrest in human HCT-116 cells assessed as accumulation at G1/G0 phase at 2.5 uM measured after 24 hrs by propidium iodide staining based flow cytometry (reference value: 65%); assay type: functional
HCT-116 [3] = test: Cell cycle arrest in human HCT-116 cells assessed as accumulation at G1/G0 phase at 1.25 uM measured after 24 hrs by propidium iodide staining based flow cytometry (reference value: 65%); assay type: functional
HCT-116 [4] = test: Cell cycle arrest in human HCT-116 cells assessed as accumulation at G2/M phase at 1.25 uM measured after 24 hrs by propidium iodide staining based flow cytometry (reference value: 19.2%); assay type: functional
[5] = target: High affinity nerve growth factor receptor (Homo sapiens, UniProt P04629); test: Inhibition of human TRKA at 10 uM using poly[Glu:Tyr] (4:1) as substrate in presence of [gamma-33P]ATP by scintillation counting method relative to control
High affinity nerve growth factor receptor, sequence (P04629 33-796 limits assumed): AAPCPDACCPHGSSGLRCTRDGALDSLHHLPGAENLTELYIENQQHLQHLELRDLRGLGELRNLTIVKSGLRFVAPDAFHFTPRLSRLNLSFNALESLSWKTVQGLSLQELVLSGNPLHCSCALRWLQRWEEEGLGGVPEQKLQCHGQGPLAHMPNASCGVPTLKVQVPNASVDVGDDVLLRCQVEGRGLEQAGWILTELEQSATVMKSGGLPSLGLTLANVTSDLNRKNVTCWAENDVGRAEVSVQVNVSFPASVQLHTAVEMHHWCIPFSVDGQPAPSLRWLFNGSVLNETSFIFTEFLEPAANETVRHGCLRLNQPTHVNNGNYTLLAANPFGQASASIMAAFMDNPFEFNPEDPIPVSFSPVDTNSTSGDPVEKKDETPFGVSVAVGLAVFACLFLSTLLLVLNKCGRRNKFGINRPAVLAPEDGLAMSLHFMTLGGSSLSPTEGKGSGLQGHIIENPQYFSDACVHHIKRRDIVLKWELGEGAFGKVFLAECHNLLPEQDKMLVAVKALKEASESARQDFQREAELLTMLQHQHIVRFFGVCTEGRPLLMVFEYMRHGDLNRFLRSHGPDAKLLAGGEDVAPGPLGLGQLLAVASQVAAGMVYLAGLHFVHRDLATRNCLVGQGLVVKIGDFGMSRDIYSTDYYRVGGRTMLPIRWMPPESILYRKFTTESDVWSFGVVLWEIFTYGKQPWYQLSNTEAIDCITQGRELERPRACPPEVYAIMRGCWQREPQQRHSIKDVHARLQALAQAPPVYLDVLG

HCT-116 [6] = test: Cell cycle arrest in human HCT-116 cells assessed as accumulation at G1/G0 phase at 5 uM measured after 48 hrs by propidium iodide staining based flow cytometry (reference value: 52.2%); assay type: functional
HCT-116 [7] = test: Cell cycle arrest in human HCT-116 cells assessed as accumulation at G2/M phase at 1.25 uM measured after 48 hrs by propidium iodide staining based flow cytometry (reference value: 20.4%); assay type: functional
HCT-116 [8] = test: Cell cycle arrest in human HCT-116 cells assessed as accumulation at sub-G1 phase at 1.25 uM measured after 48 hrs by propidium iodide staining based flow cytometry (reference value: 17%); assay type: functional
HCT-116 [9] = test: Cell cycle arrest in human HCT-116 cells assessed as accumulation at G2/M phase at 2.5 uM measured after 48 hrs by propidium iodide staining based flow cytometry (reference value: 20.4%); assay type: functional
HCT-116 [10] = test: Cell cycle arrest in human HCT-116 cells assessed as accumulation at S phase at 1.25 uM measured after 48 hrs by propidium iodide staining based flow cytometry (reference value: 10.4%); assay type: functional
HCT-116 [11] = test: Cell cycle arrest in human HCT-116 cells assessed as accumulation at G1/G0 phase at 2.5 uM measured after 48 hrs by propidium iodide staining based flow cytometry (reference value: 52.2%); assay type: functional
HCT-116 [12] = test: Cell cycle arrest in human HCT-116 cells assessed as accumulation at sub-G1 phase at 2.5 uM measured after 48 hrs by propidium iodide staining based flow cytometry (reference value: 17%); assay type: functional

Row | SMILES | Activity (HCT-116 [1]) [%] | Activity (HCT-116 [2]) [%] | Activity (HCT-116 [3]) [%] | Activity (HCT-116 [4]) [%] | inhibition [5] [%] | Activity (HCT-116 [6]) [%] | Activity (HCT-116 [7]) [%] | Activity (HCT-116 [8]) [%] | Activity (HCT-116 [9]) [%] | Activity (HCT-116 [10]) [%] | Activity (HCT-116 [11]) [%] | Activity (HCT-116 [12]) [%]
1 | COc1cccc2nc(Nc3cccc(NC(=O)c4ccc(N5CCN(C)CC5)c(C(F)(F)F)c4)c3)ccc12 | 7.9 | 69.7 | 66.6 | 15.6 |  |  |  |  |  |  |  | 
2 | CCN1CCN(c2cc(C(=O)Nc3cccc(Nc4ccc5c(OC)cccc5n4)c3)cc(C(F)(F)F)c2)CC1 |  |  |  |  | 88 | 64.1 | 15.5 | 21 | 12.9 | 8.8 | 57.1 | 20.9
